Earlier results as cited in patent publication US20050163759A1, “Compositions and methods for ex vivo preservation of blood vessels for vascular grafts using inhibitors of type I and/or type II phosphodiesterases” (priority 2003, published 2005).

Tested on: endothelial cells
Settings: stated as known; no experiment described

SMILES: CCCC(=O)Nc1ncnc2c1ncn2[C@@H]1O[C@@H]2COP(=O)(O)O[C@H]2[C@H]1OC(=O)CCC [db cAMP, dibutyryl adenosine 3′,5′-cyclic monophosphate]
- db cAMP concentrations that become toxic to endothelial cells: higher than 4 mM
